pIC50: −log10 of the molar value.
Target: T1, Tyrosine-protein phosphatase non-receptor type 1 (Homo sapiens, UniProt P18031)
T1 sequence (P18031 whole entry): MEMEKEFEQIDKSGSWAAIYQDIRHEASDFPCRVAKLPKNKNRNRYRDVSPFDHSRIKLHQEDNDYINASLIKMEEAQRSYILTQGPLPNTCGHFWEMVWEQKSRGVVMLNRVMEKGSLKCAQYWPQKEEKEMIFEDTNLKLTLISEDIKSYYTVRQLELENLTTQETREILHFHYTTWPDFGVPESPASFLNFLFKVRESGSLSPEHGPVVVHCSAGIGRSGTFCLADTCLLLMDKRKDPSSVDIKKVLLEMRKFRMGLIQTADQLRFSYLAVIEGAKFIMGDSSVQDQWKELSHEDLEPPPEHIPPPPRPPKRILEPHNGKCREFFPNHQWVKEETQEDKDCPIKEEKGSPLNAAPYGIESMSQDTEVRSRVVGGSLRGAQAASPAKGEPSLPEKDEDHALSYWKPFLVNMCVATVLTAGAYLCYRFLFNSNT
Description: Inhibition of C-terminal PTP1B (unknown origin)

Compound | pIC50
COC(=O)CC[C@@H](C)[C@H]1CC[C@H]2[C@@H]3[C@H](O)C[C@H]4C[C@H](NCCCCNCc5ccccn5)CC[C@]4(C)[C@H]3CC[C@]12C | 7.00

Target: T1, Tyrosine-protein phosphatase non-receptor type 1
Remark: another data set of the same source
Description: Inhibition of human recombinant PTP1B incubated for 15 mins by fluorometric assay

Compound | pIC50
N=C1SCC(=O)N1c1ccc(S(=O)(=O)Nc2ncccn2)cc1 | 5.05
O=C1CS/C(=N\c2ccccc2)N1c1ccc(S(=O)(=O)Nc2ncccn2)cc1 | 4.85
CC1S/C(=N\c2ccc(S(=O)(=O)Nc3ncccn3)cc2)N(c2ccccc2)C1=O (stereo not given) | 5.72
CC(=O)C1=CC(=O)N(c2ccc(S(=O)(=O)Nc3ncccn3)cc2)C1=O | 6.08
CC1O/C(=N\c2ccc(S(=O)(=O)Nc3ncccn3)cc2)N(c2ccccc2)C1=O (stereo not given) | 5.71
O=C(CN1CCN(c2ccccc2)CC1)Nc1ccc(S(=O)(=O)Nc2ncccn2)cc1 | 5.44
CC/N=C1\SCC(=O)N1c1ccc(S(=O)(=O)Nc2ncccn2)cc1 | 4.78

Further lines, results first:

pIC50 | Compound
6.19 | CCc1ccc(CCOc2ccc(CC3SC(=O)NC3=O)cc2)nc1 (stereo not given) [PIOGLITAZONE]
6.21 | CCN1C(=O)CS/C1=N\c1ccc(S(=O)(=O)Nc2ncccn2)cc1
6.15 | CCN1C(=O)C(C)S/C1=N\c1ccc(S(=O)(=O)Nc2ncccn2)cc1 (stereo not given)
6.14 | N#CC1=CC(=O)N(c2ccc(S(=O)(=O)Nc3ncccn3)cc2)C1=O
6.17 | O=S(=O)(Nc1ncccn1)c1ccc(NCc2nc3ccccc3[nH]2)cc1
6.24 | CN1CCN(CC(=O)Nc2ccc(S(=O)(=O)Nc3ncccn3)cc2)CC1

Target: T1, Tyrosine-protein phosphatase non-receptor type 1
Remark: another data set of the same source
Description: Inhibition of PTP1B (unknown origin)

pIC50 | Compound
5.89 | O=C(O)c1ccc(CN2C(=O)S/C(=C\c3ccc(OCc4ccccc4)cc3)C2=O)cc1
